In series [1] the test system is Botryotinia fuckeliana (Botrytis cinerea). Description: Botryotinia fuckeliana (Botrytis cinerea) / liquid culture (gray mould). It counts as cell-based. The note with it: compared to untreated control. Here is the method: Botryotinia fuckeliana (Botrytis cinerea)/Liquid Culture (Gray Mould)
Conidia of the fungus from cryogenic storage are directly mixed into nutrient broth (Vogels broth). After placing a (DMSO) solution of test compound into a microtiter plate (96-well format), the nutrient broth containing the fungal spores is added. The test plates are incubated at 24° C. and the inhibition of growth is determined photometrically 3-4 days after application.

Series [2] relates to Fusarium culmorum. In words: whole plant or invertebrate. It counts as in vivo. The note with it: in Triticum aestivum, read-out: control of Fusarium culmorum.
Series [3] has as its system Magnaporthe grisea (Pyricularia oryzae). Description: microbe, parasite or virus in culture. The note with it: read-out: control of Magnaporthe grisea. It counts as cell-based.
For series [4], the system named is Gibberella zeae (Fusarium graminearum). Description: whole plant or invertebrate. The series is classed as in vivo. The note with it: in Triticum aestivum, read-out: control of Gibberella zeae.
Series [5] concerns Fusarium culmorum. In words: microbe, parasite or virus in culture. It counts as cell-based. The note with it: read-out: control of Fusarium culmorum.
For series [6], the system named is Glomerella lagenarium (Colletotrichum lagenarium). Description: Glomerella lagenarium (Colletotrichum lagenarium) / liquid culture (anthracnose). The note with it: Colletotrichum orbiculare, compared to untreated control. The series is classed as cell-based. The method, then: Conidia of the fungus from cryogenic storage are directly mixed into nutrient broth (PDB potato dextrose broth). After placing a (DMSO) solution of test compound into a microtiter plate (96-well format), the nutrient broth containing the fungal spores is added. The test plates are incubated at 24° C. and the inhibition of growth is measured photometrically 3-4 days after application.

Series [7] deals with Monographella nivalis (Microdochium nivale). Description: Monographella nivalis (Microdochium nivale) / liquid culture (foot rot cereals). It counts as cell-based. The note with it: compared to untreated control. The method, then:
Monographella nivalis (Microdochium nivale)/Liquid Culture (Foot Rot Cereals)
Conidia of the fungus from cryogenic storage are directly mixed into nutrient broth (PDB potato dextrose broth). After placing a (DMSO) solution of test compound into a microtiter plate (96-well format), the nutrient broth containing the fungal spores is added. The test plates are incubated at 24° C. and the inhibition of growth is determined photometrically 4-5 days after application.

For a further series, the system named is Sclerotinia sclerotiorum. Description: Sclerotinia sclerotiorum / liquid culture (cottony rot). The note with it: compared to untreated control. It counts as cell-based. Here is the method: Sclerotinia sclerotiorum/Liquid Culture (Cottony Rot)
Mycelia fragments of a newly grown liquid culture of the fungus are directly mixed into nutrient broth (Vogels broth). After placing a (DMSO) solution of test compound into a microtiter plate (96-well format) the nutrient broth containing the fungal material is added. The test plates are incubated at 24° C. and the inhibition of growth is determined photometrically 3-4 days after application.

Results on nine compounds are retold here after patent US11234437B2 (priority 2017, dated 2022).

On to `C[C@](Cc1ccccc1)(CC1(F)CC1)NC(=O)c1cnc2c(F)cccc2c1` [Compound F-24, N-[(1S)-1-benzyl-2-(1-fluorocyclopropyl)-1-methyl-ethyl]-8-fluoro-quinoline-3-carboxamide], for which the inhibition of growth at 200 ppm (in series [1]; in the series with Fusarium culmorum [5]; in series [6]) was not below 80% each time. Besides, the pest or weed control at 200 ppm (in the series with Fusarium culmorum [2]; in [4]) was not below 80% each time. The inhibition of growth at 20 ppm (in series [3]; in [7]; with Sclerotinia sclerotiorum) was not below 80% throughout.
As for `CC1(C[C@](C)(Cc2ccccc2)NC(=O)c2cnc3c(F)cccc3c2)CC1` [Compound F-25, N-[(1R)-1-benzyl-1-methyl-2-(1-methylcyclopropyl)ethyl]-8-fluoro-quinoline-3-carboxamide], the inhibition of growth at 200 ppm (in series [1]; in the series on Fusarium culmorum [5]; in series [6]) was not below 80% each time. Also, the pest or weed control at 200 ppm (in the series with Fusarium culmorum [2]; in [4]) was not below 80% in each case. The inhibition of growth at 20 ppm (in series [3]; in the series with Sclerotinia sclerotiorum) was not below 80% throughout.
Consider `C[C@@](Cc1cccc(F)c1)(CC(F)(F)F)NC(=O)c1cnc2c(F)cccc2c1` [Compound F-27, 8-fluoro-N-[(1R)-3,3,3-trifluoro-1-[(3-fluorophenyl)methyl]-1-methyl-propyl]quinoline-3-carboxamide], for which the inhibition of growth at 200 ppm (in [1]; in the series on Fusarium culmorum [5]; in series [6]) was not below 80% in each case. The pest or weed control at 200 ppm (in the series with Fusarium culmorum [2]; in [4]) was not below 80% each time. Further, the inhibition of growth at 20 ppm in series [3] and in series [7] was not below 80% each time.
Regarding `C[C@](Cc1cccc(F)c1)(CC(F)(F)F)NC(=O)c1cnc2c(F)cccc2c1` [Compound F-28, 8-fluoro-N-[(1S)-3,3,3-trifluoro-1-[(3-fluorophenyl)methyl]-1-methyl-propyl]quinoline-3-carboxamide], the inhibition of growth at 200 ppm (in [1]; in the series with Fusarium culmorum [5]; in series [6]) was not below 80% each time. Also, the pest or weed control at 200 ppm (with Fusarium culmorum [2]; in series [4]) was not below 80% each time. Moreover, the inhibition of growth at 20 ppm (in series [3]; with Sclerotinia sclerotiorum) was not below 80% in each case.
As for `CC(C)C[C@](C)(Cc1cccc(F)c1)NC(=O)c1cnc2c(F)cccc2c1` [Compound F-29, 8-fluoro-N-[(1R)-1-[(3-fluorophenyl)methyl]-1,3-dimethyl-butyl]quinoline-3-carboxamide], the inhibition of growth at 200 ppm (in series [1]; with Fusarium culmorum [5]; in [6]) was not below 80% throughout. Also, the pest or weed control at 200 ppm (in the series on Fusarium culmorum [2]; in [4]) was not below 80% throughout. For the same compound, the inhibition of growth at 20 ppm (in series [3]; in the series on Sclerotinia sclerotiorum) was not below 80% in each case.
As to `C[C@](Cc1ccccc1)(CC(F)(F)F)NC(=O)c1cnc2ccccc2c1` [Compound F-34, N-[(1S)-1-benzyl-3,3,3-trifluoro-1-methyl-propyl]quinoline-3-carboxamide], the inhibition of growth at 200 ppm (in series [1]; in the series with Fusarium culmorum [5]; in series [6]) was not below 80% in each case. The pest or weed control at 200 ppm (in the series on Fusarium culmorum [2]; in [4]) was not below 80% throughout. The inhibition of growth at 20 ppm (in series [3]; in series [7]; with Sclerotinia sclerotiorum) was not below 80% throughout.
Consider `C=C(Cl)C[C@](C)(Cc1ccccc1)NC(=O)c1cnc2c(F)cccc2c1` [Compound F-35], for which the inhibition of growth at 200 ppm (in series [1]; in the series on Fusarium culmorum [5]; in series [6]) was not below 80% each time. Moreover, the pest or weed control at 200 ppm (in the series on Fusarium culmorum [2]; in series [4]) was not below 80% each time. Besides, the inhibition of growth at 20 ppm (in series [3]; in series [7]; in the series with Sclerotinia sclerotiorum) was not below 80% each time.
`C=C(Cl)CC(C)(Cc1ccccc1)NC(=O)c1cnc2c(F)cccc2c1` (stereo not drawn) [X.001] gave a melting point of 56 to 59 °C. In series [1], this compound returned an inhibition of growth at 200 ppm not below 80%. The pest or weed control at 200 ppm in the series with Fusarium culmorum [2] was not below 80%. Besides, the inhibition of growth at 20 ppm in series [3] was not below 80%. The pest or weed control at 200 ppm in series [4] is not below 80%. Further, the inhibition of growth at 200 ppm in the series with Fusarium culmorum [5] is not below 80%. The compound also had an inhibition of growth at 200 ppm in [6] not below 80%. In series [7], this compound had an inhibition of growth at 20 ppm not below 80%. In the series on Sclerotinia sclerotiorum, the inhibition of growth at 20 ppm was not below 80%.
In turn, `CC(Cc1ccccc1)(CC(F)(F)F)NC(=O)c1cnc2ccccc2c1` (stereo not drawn) [X.020, N-(1-benzyl-3,3,3-trifluoro-1-methyl-propyl)quinoline-3-carboxamide] gave a melting point of 130 to 132 °C. Besides, in series [1], the inhibition of growth at 200 ppm was not below 80%. Besides, the pest or weed control at 200 ppm with Fusarium culmorum [2] was not below 80%. The inhibition of growth at 20 ppm in series [3] is not below 80%. In series [4], the pest or weed control at 200 ppm is not below 80%. Also, in the series on Fusarium culmorum [5], the inhibition of growth at 200 ppm is not below 80%. In addition, the inhibition of growth at 200 ppm in series [6] is not below 80%. The same compound registered an inhibition of growth at 20 ppm in the series with Sclerotinia sclerotiorum not below 80%.

For orientation: melting point means the temperature, or range, at which the solid turns liquid.
